# Measurements: patent US7291341B2, “Stresscopins and their uses” (The Board of Trustees of the Leland Stanford Junior …, priority 2000, dated 2007)
# Ends that are not written are not given here.
# Columns and labels:
# [1] = test system: gastric emptying in food-restricted mice; test: Gastric emptying in food-restricted mice; type: in vivo; details: i.p., 2 h after hormone treatment, FIG. 4e
# Method: (§1) FIG. 4. […] ACTH contents in culture media and serum were determined using a radioimmunoassay. For in vivo studies, male rats were injected i.p. with test peptides (2 nmoles/kg B.W.) and sacrificed 30 mm later. Data are mean SEM (N=4). FIG. 4c. Anti-edema response regulated by stresscopins. Stresscopin 1 (20 nmoles/kg), stresscopin 2 (100 nmoles/kg), and related hormones (20 nmoles/kg) suppress heat-induced paw edema formation in anaesthetized rats (N=6). FIG. 4d. Cumulative food intake in mice treated with stresscopin 1 (left panel, N=6) and stresscopin 2 (right panel, N=4) peptides and other hormones at 2, 4, and 8 h after treatment. FIG. 4e. Reduction of gastric emptying by stresscopin 1 (blank bars, 8 nmoles/kg; hatched bars, 80 nmoles/kg), stresscopin 2 (blank bars, 80 nmoles/kg; hatched bars, 200 nmoles/kg), and related hormones (blank bars, 8 nmoles/kg; hatched bars, 80 nmoles/kg) at 2 h after hormone treatment (N=6). The rates of gastric emptying were calculated by the formula (wet weight of stomach at 2 h after treatment/wet weight of stomach in fed animals sacrificed at 0 h). SCP1 is stresscopin 1; SCP2 is stresscopin 2; UCN is urocortin; SCP1 (11-43) is truncated stresscopin 1 with the first 10 amino acids deleted.
# Effects on gastric emptying in food-restricted mice. To study the effects on gastric emptying, mice were deprived of food for 16 h with free access to water. The fasted mice were then given free access to preweighed pellets for 90 min. and were injected i.p. with different hormones or saline. The mice were deprived of food again after i.p. injection and sacrificed by cervical dislocation at 2 h. after injection. The stomach was excised at point of the pylorus and cardia before determination of its wet weight. Gastric emptying was calculated by comparison with stomach weight of control mice sacrificed at 0 h. following injection. See, Asakawa, A. et al. (1999) Gastroenterology 116:1287-1292.
# [2] = test system: cultured rat anterior pituitary cells; test: ACTH release by cultured anterior pituitary cells in vitro; type: cell-based; details: hormones 1 nM, 2 h at 37° C., FIG. 4a
# Method: as §1
# (§2) In Vivo and in Vitro assay of pituitary ACTH releasing activity. Anterior pituitaries were obtained from 6-week-old male Sprague-Dawley rats. […]
# fasting mice = test: Food intake and body weight in food-restricted mice; type: in vivo; details: for cumulative food intake: i.p., fasting mice, 2, 4 and 8 h after treatment, FIG. 4d; for Average body weight change/mouse / Average food intake/mouse: fasted animals, 2 h after treatment, N = 5
# Method: as §1
# Food intake and body weight in food-restricted mice. Six week-old male mice (20-25 g b.w.) of the inbreed Balb/C strain were housed individually in a regulated environment with 12L/12D light cycle. Before feeding tests, mice were deprived of food for 16 h with free access to water and injected with testing reagents i.p. at 10 AM the following day. Food intake was measured by placing preweighed pellets in the cage and weighing the uneaten pellets at 2, 4 and 8 h after injection. Body weight was also monitored at 0, 2, 4, and 8 h.
# [3] = molecular target: T1, CRHR2-containing rat cardiac A7r5 cells (Rattus norvegicus, UniProt P47866); test: cAMP production in CRHR2-containing rat cardiac A7r5 cells; type: cell-based; details: harvested 16 h after treatment (FIG. 3a)
# T1 construct: cells constitutively expressing CRH receptors; host or cells: A7r5 (rat)
# T1 sequence (P47866 1-431 isoform P47866-2): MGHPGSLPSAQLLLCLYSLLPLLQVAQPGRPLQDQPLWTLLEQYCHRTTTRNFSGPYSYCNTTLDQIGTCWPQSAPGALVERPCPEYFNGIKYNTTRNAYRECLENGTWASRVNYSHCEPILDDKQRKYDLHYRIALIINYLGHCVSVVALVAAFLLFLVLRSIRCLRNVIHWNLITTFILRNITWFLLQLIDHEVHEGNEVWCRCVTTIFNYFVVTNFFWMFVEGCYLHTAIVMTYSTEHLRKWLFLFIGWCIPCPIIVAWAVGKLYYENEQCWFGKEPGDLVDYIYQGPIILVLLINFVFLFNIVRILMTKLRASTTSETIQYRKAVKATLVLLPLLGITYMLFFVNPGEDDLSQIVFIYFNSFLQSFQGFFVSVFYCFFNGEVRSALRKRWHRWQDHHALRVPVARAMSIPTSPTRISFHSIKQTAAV
# Method: (§3) FIG. 3. […] Hormonal stimulation of cAMP production by FIG. 3a. CRHR2-containing rat cardiac A7r5 cells, FIG. 3b. CRHR1-containing human retinoblastoma Y79 cells, FIG. 3c. recombinant CRHR2, FIG. 3d. recombinant CRHR2 and, FIG. 3e. recombinant CRHR1. Cells incubated with the test peptide or vehicle were harvested at 16 h after treatment and heated to 95° C. for 5 mm to inactivate phosphodiesterase activity before cAMP measurement. FIG. 3f. […] Data are the mean SEM (N=4). SCP1-0.1, stresscopin 1 (0.1 nM); SCP1, stresscopin 1 (1 nM); SCP1(2-43), truncated stresscopin 1 with the first amino acid deleted; SCP1 (3-43), truncated stresscopin 1 with 2-amino-acid deletion; SCP1 (4-43), truncated stresscopin 1 with 3-amino-acid deletion; SCP1 (5-43), truncated stresscopin 1 with 4-amino-acid deletion; SCP1 (6-43), truncated stresscopin 1 with 5-amino-acid deletion; SCP1-NA-0.1, full-length stresscopin 1 devoid of amidation at the C-terminus (0.1 nM); SCP1-NA, full-length stresscopin 1 devoid of amidation at the C-terminus (1 nM); UCN, urocortin. FIGS. 3g and 3h. […] Data are mean SEM (N=3).
# (§4) The receptor cDNA fragments were subcloned into the pcDNA3.1/Zeo vector with a prolactin signal peptide for secretion and triple FLAG/M1 epitope cassette upstream of the multiple cloning site. […] For the estimation of adenylate cyclase activation by stresscopin and related hormones, transfected cells were seeded at a concentration of 100,000 cell/well in 48 well culture plates in DMEM/F12 medium containing 0.1% BSA and 2.5mM IBMX for 16 h. Contents of cAMP in whole cell lysate were determined using a cAMP radioimmunoassay.
# recombinant CRHR2 = test: cAMP production by 293T cells transfected with recombinant CRHR2 (two isoforms); type: cell-based; details: for cAMP production mediated by recombinant CRHR2: 293T cells transiently transfected, two isoforms of CRHR2 (FIGS. 3c-3d)
# Sequence of recombinant CRHR2 (Q13324 35-411 limits assumed): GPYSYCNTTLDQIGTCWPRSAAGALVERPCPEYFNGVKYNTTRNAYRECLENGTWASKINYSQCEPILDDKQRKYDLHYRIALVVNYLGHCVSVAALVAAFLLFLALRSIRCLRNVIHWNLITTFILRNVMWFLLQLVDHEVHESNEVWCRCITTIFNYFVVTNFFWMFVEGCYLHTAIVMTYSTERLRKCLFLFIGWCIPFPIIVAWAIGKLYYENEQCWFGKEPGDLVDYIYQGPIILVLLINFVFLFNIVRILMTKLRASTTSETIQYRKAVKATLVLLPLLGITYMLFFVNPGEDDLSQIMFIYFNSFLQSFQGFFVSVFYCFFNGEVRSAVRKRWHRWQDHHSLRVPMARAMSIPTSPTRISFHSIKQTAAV
# Method: as §3, §4
# [4] = test system: ACTH release in intact male rats; test: ACTH secretion in vivo; parameters: species or system rat; details: i.p. 2 nmoles/kg, 30 min, FIG. 4b
# Method: as §1, §2
# [5] = test system: heat-induced paw edema in anaesthetized rats; test: Heat-induced paw edema formation in anaesthetized rats; type: in vivo, rat; details: i.p., FIG. 4c
# Method: as §1
# Effects on heat-induced paw edema formation in anaesthetized rats. The anti-inflammatory effect of stresscopin and related peptides were assayed using an established model (Turnbull et al. (1996) Euro. J. Pharmacol. 303:213-216). Briefly, 5-week-old male Sprague-Dawley rats were injected with […] of the testing peptide and anaesthetized with ketamine (100 mg/Kg). Thirty min. later, paw edema was induced following a one minute exposure to hot water at 58° C. The animals were sacrificed 30 min later. Both paws were removed at the ankle joint and weighed. The degree of edema was estimated as the differences in weight gain between the heated and unheated paw divided by the weight of the unheated paw.
# [6] = molecular target: T2, CRHR1-containing human retinoblastoma Y79 cells (Homo sapiens, UniProt P34998); test: cAMP production in CRHR1-containing human retinoblastoma Y79 cells; type: cell-based; details: harvested 16 h after treatment (FIG. 3b)
# T2 construct: cells constitutively expressing CRH receptors; host or cells: Y79 (human retinoblastoma)
# T2 sequence (P34998 24-415): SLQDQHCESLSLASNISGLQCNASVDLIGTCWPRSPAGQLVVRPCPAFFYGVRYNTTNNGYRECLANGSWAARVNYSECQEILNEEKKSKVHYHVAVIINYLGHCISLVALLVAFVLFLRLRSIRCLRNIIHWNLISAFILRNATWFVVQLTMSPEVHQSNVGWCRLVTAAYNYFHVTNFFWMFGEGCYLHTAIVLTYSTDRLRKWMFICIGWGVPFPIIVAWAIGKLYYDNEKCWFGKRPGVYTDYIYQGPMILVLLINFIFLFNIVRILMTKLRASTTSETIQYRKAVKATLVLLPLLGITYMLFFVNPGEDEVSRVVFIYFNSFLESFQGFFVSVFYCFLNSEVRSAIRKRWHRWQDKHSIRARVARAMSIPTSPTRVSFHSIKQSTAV
# Method: (§5) CRHR1-containing human retinoblastoma Y79 cells, FIG. 3c. recombinant CRHR2, FIG. 3d. recombinant CRHR2 and, FIG. 3e. recombinant CRHR1. Cells incubated with the test peptide or vehicle were harvested at 16 h after treatment and heated to 95° C. for 5 mm to inactivate phosphodiesterase activity before cAMP measurement. […] Data are the mean SEM (N=4). SCP1-0.1, stresscopin 1 (0.1 nM); SCP1, stresscopin 1 (1 nM); SCP1(2-43), truncated stresscopin 1 with the first amino acid deleted; SCP1 (3-43), truncated stresscopin 1 with 2-amino-acid deletion; SCP1 (4-43), truncated stresscopin 1 with 3-amino-acid deletion; SCP1 (5-43), truncated stresscopin 1 with 4-amino-acid deletion; SCP1 (6-43), truncated stresscopin 1 with 5-amino-acid deletion; SCP1-NA-0.1, full-length stresscopin 1 devoid of amidation at the C-terminus (0.1 nM); SCP1-NA, full-length stresscopin 1 devoid of amidation at the C-terminus (1 nM); UCN, urocortin. […] Data are mean SEM (N=3).
# CRH R2 = test: Receptor binding assay, displacement of 125I-urocortin; details: 293T cells transfected with CRHR2 isoforms (FIGS. 3g, 3h)
# Method: as §3
# Receptor Binding assay. […] After 60 min incubation at 37° C., the cell-associated ligand was estimated following centrifugation and repeated washing. Radioactivity of samples was determined in a GENESYS-counter (Laboratory Technologies, Inc., Maple Park, Ill.).
# recombinant CRHR1 = molecular target: T3, recombinant CRHR1 (Homo sapiens, UniProt P34998); test: cAMP production by 293T cells transfected with recombinant CRHR1; type: cell-based; details: 293T cells transiently transfected (FIG. 3e)
# T3 construct: prolactin signal peptide (N); expressed in transfected cells; host or cells: human 293T cells, pcDNA3.1/Zeo vector
# T3 sequence (P34998 24-415): T2 sequence (P34998 24-415)
# Method: as §5
cAMP production [3],ability to bind CRHR2 (displacement of labeled urocortin) (CRH R2),Substance,gastric emptying activity [1],ACTH release in vitro [2],cumulative food intake (fasting mice),cAMP production mediated by recombinant CRHR2 (recombinant CRHR2),ACTH release in vivo [4],heat-induced edema formation ([5]; 20 nmoles/kg),reduction in ability to stimulate cAMP production (recombinant CRHR2; compared to amidated stresscopin 1) [fold],Average body weight change/mouse (fasting mice; 20 nM) [grams],Average food intake/mouse (fasting mice; 20 nM) [grams],cAMP production [6],"higher potency as compared to stresscopin 2 and the pufferfish peptide (recombinant CRHR2; activation of type-2 CRH receptors, cAMP) [fold]",Average body weight change/mouse (fasting mice; 2 nM) [grams],Average food intake/mouse (fasting mice; 2 nM) [grams],heat-induced edema formation ([5]; 100 nmoles/kg),cAMP production mediated by recombinant CRHR1 (recombinant CRHR1)
stimulated cAMP production,,"CRH: corticotropin releasing hormone, 41-amino acid peptide; purchased from Sigma Biochemicals [reference compound]",suppressed gastric emptying activity,stimulated the release of ACTH,dose-dependently decreased food intake,stimulated cAMP production,stimulated the release of ACTH,suppressed heat-induced edema formation,,,,,,,,,
,,SCP1-NA: full-length stresscopin 1 devoid of amidation at the C-terminus (HPGSRIVLSLDVILGLLQILLEQARARAAREQATTNARILARV-OH),,,,,,,> 50,,,,,,,,
stimulated cAMP production,bind,"stresscopin 1: mature 43 amino acid peptide, SEQ ID NO:3, derived from a 112 amino acid precursor; selective CRH-R2 ligand (HPGSRIVLSLDVILGLLQILLEQARARAAREQATTNARILARV; listed as Homo sapiens)",suppressed gastric emptying activity,,dose-dependently decreased food intake,potent agonists,,suppressed heat-induced edema formation,,0.31 ± 0.14,0.185,ineffective,> 10,,,,
,bind,"stresscopin 2: mature peptide of 40 amino acids, SEQ ID NO:6, derived from a 161 amino acid precursor protein (TKFTLSLDVPTNIMNLLFNIAKAKNLRAQAAANAHLMAQI; listed as Homo sapiens)",suppressed gastric emptying activity,,dose-dependently decreased food intake,potent agonists,,,,0.11 ± 0.1,0.152,,,−0.19 ± 0.24,0.176,suppressed heat-induced edema formation,

Substance,cAMP production [3],ability to bind CRHR2 (displacement of labeled urocortin) (CRH R2),gastric emptying activity [1],ACTH release in vitro [2],cumulative food intake (fasting mice),cAMP production mediated by recombinant CRHR2 (recombinant CRHR2),ACTH release in vivo [4],heat-induced edema formation ([5]; 20 nmoles/kg),reduction in ability to stimulate cAMP production (recombinant CRHR2; compared to amidated stresscopin 1) [fold],Average body weight change/mouse (fasting mice; 20 nM) [grams],Average food intake/mouse (fasting mice; 20 nM) [grams],cAMP production [6],"higher potency as compared to stresscopin 2 and the pufferfish peptide (recombinant CRHR2; activation of type-2 CRH receptors, cAMP) [fold]",Average body weight change/mouse (fasting mice; 2 nM) [grams],Average food intake/mouse (fasting mice; 2 nM) [grams],heat-induced edema formation ([5]; 100 nmoles/kg),cAMP production mediated by recombinant CRHR1 (recombinant CRHR1)
"urocortin: 40 amino acid peptide, ligand for the CRH receptors; purchased from Sigma Biochemicals (DNPSLSIDLTFHLLRTLLELARTQSQRERAEQNRIIFDSV; ends and bridges not checked; UniProt P55089 83-122, looked up) [reference compound]",stimulated cAMP production,,suppressed gastric emptying activity,stimulated the release of ACTH,dose-dependently decreased food intake,stimulated cAMP production,stimulated the release of ACTH,suppressed heat-induced edema formation,,,,stimulated cAMP production,,,,,stimulated cAMP production
